Measured values: patent US20230085307A1, “PYRIDAZINONE COMPOUND AND HERBICIDE” (NISSAN CHEMICAL CORPORATION, priority 2019, published 2023)

Key:
Chinese sprangletop = assay: Test Example 3: herbicidal effect by foliage application, Wagner pot (Table 18, symbol D); assay type: in vivo, chinese sprangletop (Leptochloa chinensis); conditions: 320 g/ha
In short: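 Plants were sown in alluvial soil held under 0.1–0.5 cm standing water and grown 14 days in a greenhouse at 25–30 °C. An emulsifiable formulation, water-diluted to the set dose, was then sprayed onto the foliage, and effects were scored three weeks later using previously defined criteria.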

wild oat = assay: Test Example 4: herbicidal effect by soil treatment (Table 19, symbol I); assay type: in vivo, wild oat (Avena fatua); conditions: amount of applied herbicide 320 g/ha
In short: (§1)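 Pre-emergence style soil spray: seeds under ~1.5 cm sterilized diluvial soil received a uniform coat of emulsion diluted to the predetermined herbicide amount. Greenhouse 25–30° C; readout at week three on previously defined criteria.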

Japanese bulrush = assay: Test Example 2: herbicidal activity, application during weed generation under submerged conditions (Table 17, symbol B); assay type: in vivo, Japanese bulrush (Schoenoplectus juncoides); conditions: AAH 320 g/ha; application during weed generation, submerged conditions
In short: (§2)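 Wagner pot, alluvial soil, 4 cm flood; mixed sowing of all species; greenhouse 25° C.–30° C. Emulsifiable formulation, water-diluted to predetermined dose, applied to paddy water at 1–2 leaf stage. Effect rated at 3 wk using the earlier test's scoring criteria.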

persian speedwell = assay: Test Example 5: herbicidal effect by foliage application, plastic box (Table 20, symbol R); assay type: in vivo, Persian speedwell (Veronica persica); conditions: foliage application, 320 g/ha, three weeks after application
In short: (§3)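 Plants were sown into sterilized diluvial soil under about 1.5 cm cover and kept in a greenhouse at 25° C. to 30° C. Fourteen days on, foliage received an even spray of the diluted emulsion. Herbicidal or crop effect was judged three weeks afterwards.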

lambsquarters [1] = assay: Test Example 4: herbicidal effect by soil treatment (Table 19, symbol O); assay type: in vivo, lambsquarters (Chenopodium album); conditions: amount of applied herbicide 320 g/ha
In short: as §1

oval-leafed pondweed [2] = assay: Test Example 1: herbicidal activity, application before weed generation under submerged conditions (Table 16, symbol C); assay type: in vivo, oval-leafed pondweed (Monochoria vaginalis); conditions: amount of applied herbicide 320 g/ha
In short: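 Emulsion formulation, water-diluted to set dose, was put onto the flooded surface (4 cm depth, alluvial soil) the same day weeds were sown and 2.5-leaf rice transplanted. After 3 weeks at 25-30 °C under glass, each species was rated 0 (≤5% kill) to 5 (≥90% kill).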

late watergrass = assay: Test Example 2: herbicidal activity, application during weed generation under submerged conditions (Table 17, symbol A); assay type: in vivo, late watergrass (Echinochloa oryzicola); conditions: AAH 320 g/ha; application during weed generation, submerged conditions
In short: as §2

blackgrass = assay: Test Example 4: herbicidal effect by soil treatment (Table 19, symbol J); assay type: in vivo, blackgrass (Alopecurus myosuroides); conditions: amount of applied herbicide 320 g/ha
In short: as §1

redroot pigweed = assay: Test Example 4: herbicidal effect by soil treatment (Table 19, symbol N); assay type: in vivo, redroot pigweed (Amaranthus retroflexus); conditions: amount of applied herbicide 320 g/ha
In short: as §1

Italian ryegrass = assay: Test Example 5: herbicidal effect by foliage application, plastic box (Table 20, symbol K); assay type: in vivo, Italian ryegrass (Lolium multiflorum); conditions: foliage application, 320 g/ha, three weeks after application
In short: as §3

chickweed [3] = assay: Test Example 4: herbicidal effect by soil treatment (Table 19, symbol P); assay type: in vivo, common chickweed (Stellaria media); conditions: amount of applied herbicide 320 g/ha
In short: as §1

lambsquarters [4] = assay: Test Example 5: herbicidal effect by foliage application, plastic box (Table 20, symbol O); assay type: in vivo, lambsquarters (Chenopodium album); conditions: foliage application, 320 g/ha, three weeks after application
In short: as §3

barnyard grass = assay: Test Example 4: herbicidal effect by soil treatment (Table 19, symbol H); assay type: in vivo, barnyard grass (Echinochloa crus-galli); conditions: amount of applied herbicide 320 g/ha
In short: as §1

oval-leafed pondweed [5] = assay: Test Example 2: herbicidal activity, application during weed generation under submerged conditions (Table 17, symbol C); assay type: in vivo, oval-leafed pondweed (Monochoria vaginalis); conditions: AAH 320 g/ha; application during weed generation, submerged conditions
In short: as §2

chickweed [6] = assay: Test Example 5: herbicidal effect by foliage application, plastic box (Table 20, symbol P); assay type: in vivo, common chickweed (Stellaria media); conditions: foliage application, 320 g/ha, three weeks after application
In short: as §3

Compound | herbicidal effect on Chinese sprangletop (D) (Chinese sprangletop) | I: wild oat, herbicidal effect grade (wild oat) | herbicidal effect rating, B: Japanese bulrush (Japanese bulrush) | R: persian speedwell, herbicidal effect grade (persian speedwell) | O: lambsquarters, herbicidal effect grade (lambsquarters [1]) | Herbicidal effect, C: oval-leafed pondweed (oval-leafed pondweed [2]) | herbicidal effect rating, A: late watergrass (late watergrass) | J: blackgrass, herbicidal effect grade (blackgrass) | N: redroot pigweed, herbicidal effect grade (redroot pigweed) | K: Italian ryegrass, herbicidal effect grade (Italian ryegrass) | P: chickweed, herbicidal effect grade (chickweed [3]) | O: lambsquarters, herbicidal effect grade (lambsquarters [4]) | H: barnyard grass, herbicidal effect grade (barnyard grass) | herbicidal effect rating, C: oval-leafed pondweed (oval-leafed pondweed [5]) | P: chickweed, herbicidal effect grade (chickweed [6])
CCCCCOc1ccc2c(-c3c(O)c(C)nn(C)c3=O)c(-c3ccccc3OC)sc2c1 [3-108] | 2 (Herbicidal rate of 20% or more and less than 40%) | 0 (Herbicidal rate of 5% or less (almost no effect)) | 2 (Herbicidal rate of 20% or more and less than 40%) | 4 (Herbicidal rate of 70% or more and less than 90%) | 4 (Herbicidal rate of 70% or more and less than 90%) | 5 (Herbicidal rate of 90% or more (almost completely withered)) | 2 (Herbicidal rate of 20% or more and less than 40%) | 0 (Herbicidal rate of 5% or less (almost no effect)) | 4 (Herbicidal rate of 70% or more and less than 90%) | 0 (Herbicidal rate of 5% or less (almost no effect)) | 0 (Herbicidal rate of 5% or less (almost no effect)) | 4 (Herbicidal rate of 70% or more and less than 90%) | 0 (Herbicidal rate of 5% or less (almost no effect)) | 0 (Herbicidal rate of 5% or less (almost no effect)) | 3 (Herbicidal rate of 40% or more and less than 70%)
COc1ccccc1-c1sc2cc(OC(F)F)ccc2c1-c1c(O)c(C)nn(C)c1=O [3-113] | 3 (Herbicidal rate of 40% or more and less than 70%) | 0 (Herbicidal rate of 5% or less (almost no effect)) | 2 (Herbicidal rate of 20% or more and less than 40%) | 5 (Herbicidal rate of 90% or more (almost completely withered)) | 5 (Herbicidal rate of 90% or more (almost completely withered)) | 2 (Herbicidal rate of 20% or more and less than 40%) | 0 (Herbicidal rate of 5% or less (almost no effect)) | 4 (Herbicidal rate of 70% or more and less than 90%) | 5 (Herbicidal rate of 90% or more (almost completely withered)) | 5 (Herbicidal rate of 90% or more (almost completely withered)) | 5 (Herbicidal rate of 90% or more (almost completely withered)) | 5 (Herbicidal rate of 90% or more (almost completely withered)) | 5 (Herbicidal rate of 90% or more (almost completely withered)) | 0 (Herbicidal rate of 5% or less (almost no effect)) | 5 (Herbicidal rate of 90% or more (almost completely withered))
COc1ccccc1-c1sc2cc(OCc3ccccc3)ccc2c1-c1c(O)c(C)nn(C)c1=O [3-118] | 0 (Herbicidal rate of 5% or less (almost no effect)) | 0 (Herbicidal rate of 5% or less (almost no effect)) | 2 (Herbicidal rate of 20% or more and less than 40%) | 5 (Herbicidal rate of 90% or more (almost completely withered)) | 1 (Herbicidal rate of 5% or more and less than 20%) | 5 (Herbicidal rate of 90% or more (almost completely withered)) | 1 (Herbicidal rate of 5% or more and less than 20%) | 0 (Herbicidal rate of 5% or less (almost no effect)) | 3 (Herbicidal rate of 40% or more and less than 70%) | 5 (Herbicidal rate of 90% or more (almost completely withered)) | 0 (Herbicidal rate of 5% or less (almost no effect)) | 5 (Herbicidal rate of 90% or more (almost completely withered)) | 0 (Herbicidal rate of 5% or less (almost no effect)) | 0 (Herbicidal rate of 5% or less (almost no effect)) | 3 (Herbicidal rate of 40% or more and less than 70%)
COCCOc1ccc2c(-c3c(O)c(C)nn(C)c3=O)c(-c3ccccc3OC)sc2c1 [3-121] | 4 (Herbicidal rate of 70% or more and less than 90%) | 3 (Herbicidal rate of 40% or more and less than 70%) | 3 (Herbicidal rate of 40% or more and less than 70%) | 5 (Herbicidal rate of 90% or more (almost completely withered)) | 5 (Herbicidal rate of 90% or more (almost completely withered)) | 5 (Herbicidal rate of 90% or more (almost completely withered)) | 3 (Herbicidal rate of 40% or more and less than 70%) | 5 (Herbicidal rate of 90% or more (almost completely withered)) | 5 (Herbicidal rate of 90% or more (almost completely withered)) | 5 (Herbicidal rate of 90% or more (almost completely withered)) | 5 (Herbicidal rate of 90% or more (almost completely withered)) | 5 (Herbicidal rate of 90% or more (almost completely withered)) | 5 (Herbicidal rate of 90% or more (almost completely withered)) | 3 (Herbicidal rate of 40% or more and less than 70%) | 5 (Herbicidal rate of 90% or more (almost completely withered))
